One compound from US11304926B2, “Application of transient receptor potential cation channel TRPV3 in developing drug for preventing or treating psoriasis” (CHINA PHARMACEUTICAL UNIVERSITY, priority 2019, dated 2022) can be followed below.

The term pIC50 denotes the IC50 on a negative log10 scale, so that one unit is a factor of ten.

The test has as its target T1, mTRPV3 (Mus musculus, UniProt Q8K424).
T1 construct: expressed in transfected cells
T1 sequence (Q8K424 1-791): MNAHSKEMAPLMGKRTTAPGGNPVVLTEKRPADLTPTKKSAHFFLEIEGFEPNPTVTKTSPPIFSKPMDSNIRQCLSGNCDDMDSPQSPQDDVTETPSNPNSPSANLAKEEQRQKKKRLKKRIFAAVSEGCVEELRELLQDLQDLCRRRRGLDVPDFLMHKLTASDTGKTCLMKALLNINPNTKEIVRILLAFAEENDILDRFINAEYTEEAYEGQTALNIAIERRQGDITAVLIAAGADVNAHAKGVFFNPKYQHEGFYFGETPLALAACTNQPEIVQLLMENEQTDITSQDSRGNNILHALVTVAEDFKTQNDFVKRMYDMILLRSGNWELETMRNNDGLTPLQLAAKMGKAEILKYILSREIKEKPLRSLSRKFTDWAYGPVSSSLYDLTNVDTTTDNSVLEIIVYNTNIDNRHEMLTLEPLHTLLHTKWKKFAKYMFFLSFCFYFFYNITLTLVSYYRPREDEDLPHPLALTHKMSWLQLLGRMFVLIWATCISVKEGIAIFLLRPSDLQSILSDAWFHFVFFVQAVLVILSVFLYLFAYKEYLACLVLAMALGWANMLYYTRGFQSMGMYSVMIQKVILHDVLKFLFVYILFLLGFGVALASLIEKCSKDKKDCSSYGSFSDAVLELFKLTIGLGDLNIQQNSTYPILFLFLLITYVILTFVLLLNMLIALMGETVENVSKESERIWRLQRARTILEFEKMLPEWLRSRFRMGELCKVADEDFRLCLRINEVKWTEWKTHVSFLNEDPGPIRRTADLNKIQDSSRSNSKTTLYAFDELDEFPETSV
As to the kind of experiment: Whole-cell patch clamp of 2-APB induced current in mTRPV3-HEK-293 cells. It is filed as cell-based. How it is done:
mTRPV3 plasmids were donated by Professor Jie Zheng from UC Davis. Transfection steps were as follows: HEK-293 cells with a confluence ranging from 70% to 80% and a good growth state were seeded into T-60 small dishes the day before transfection, each small dish contained 4×10^5 cells, and the cells were cultured without penicillin/streptomycin overnight at 37° C. in 5% CO2. 10 μL of plasmids (plasmid concentration was 1000 ng/μL) were diluted with 250 μl of DMEM (article number: 12800017, Gibco), and meanwhile, 10 μL of Lipofectamine 2000 (article number: 11668027, Gibco) was diluted into 250 μL of DMEM. […] Monoclone cells were selected by a limiting dilution method: the screened cells were digested and counted, and seeded into a 96-well plate in sequence at densities of 10^4 cells/well, 10^3 cells/well, 10^2 cells/well, 10 cells/well, and 1 cell/well. Under a fluorescence microscope, wells of separate cells with green fluorescence were labeled, and cells amplified from the wells were HEK-293 cells stably transfecting the mTRPV3. […] HEK-293 cells stably transecting mTRPV3 (mTRPV3-HEK-293) were seeded into T-60 small dishes with a confluence ranging from 20% to 30%, and whole cell current was recorded by a patch clamp amplification system next day. […]

Structures are written as SMILES. pIC50: −log10 of the molar value. “Also recorded” adds a separate entry of the source.

Regarding `O=c1cc(-c2ccc(O)cc2)oc2cc(O)c(O)c(O)c12` [Scutellarein], the “inhibition of whole-cell current induced by 2-APB” value (Scutellarein 0.3-30 μM, 2-APB 100 μM, mTRPV3-HEK-293) was “could inhibit the whole-cell current induced by the 2-APB and had a dose dependence; also recorded: obvious inhibitory effect”. For the same compound, the pIC50 (whole-cell patch clamp, mTRPV3-HEK-293, 2-APB 100 μM, nonlinear fitting) was 6.00.
